From ChEMBL document CHEMBL5523672, “Thiazol-4(5H)-one analogs as potent tyrosinase inhibitors: Synthesis, tyrosinase inhibition, antimelanogenic effect, antioxidant activity, and in silico docking simulation” (Bioorg Med Chem, 2024) come the findings set out here.

The source made the active and inactive calls. The rule behind the calls is not given here. A value given as a limit tells only on which side of the number the result lay.

The IC50 is the midpoint of a concentration-inhibition curve. The low end stands for greater potency in that assay, the high end for weaker potency in that assay. One may read the Ki as the equilibrium dissociation constant of an inhibitor or competing ligand from its target. A low value points to higher affinity.

Data set [1] can be described thus: Antioxidant activity assessed as ROS scavenging activity at 40 uM incubated for 30 mins under dark condition in presence of SIN-1 by microplate reader assay. It is filed as functional.
Data set [2] in a line: Antioxidant activity assessed as ABTS radical scavenging activity at 100 uM measured at 1 min interval for 10 mins by microplate reader analysis. It is filed as functional.
Data set [3] has as its target T1, Mushroom tyrosinase (Agaricus bisporus, UniProt O42713+Q00024+C7FF04+C7FF05). As to the kind of experiment: Inhibition of mushroom tyrosinase using L-DOPA as substrate incubated for 30 mins by microplate reader assay. It is filed as protein assay.
Data set [4] is described as follows: Antioxidant activity assessed as DPPH radical scavenging activity at 500 uM incubated for 30 mins under dark condition by microplate reader assay. The class given is functional. In general terms: DPPH is a stable violet radical that fades when it is reduced.
In data set [5] the target is T1, Mushroom tyrosinase. As to the kind of experiment: Inhibition of mushroom tyrosinase using L-tyrosine as substrate incubated for 30 mins by microplate reader assay. The class given is protein assay.
In data set [6] the target is T1, Mushroom tyrosinase. The data set can be described thus: Inhibition of mushroom tyrosinase using varying levels of L-DOPA as substrate by Dixon plot analysis. The class given is protein assay.
Data set [7] relates to B16-F10. The data set can be described thus: Cytotoxicity against mouse B16-F10 cells upto 20 uM incubated for 72 hrs by EZ-Cytox method. It is filed as toxicity, cell-based. Particulars: b16-f10, 72 h.
Data set [8] concerns the target T2, Mushroom tyrosinase (Agaricus bisporus) (UniProt O42713+Q00024+C7FF04+C7FF05). As to the kind of experiment: Competitive inhibition of mushroom tyrosinase assessed as increase in Km with constant Vmax at 25 to 100 uM using varying levels of L-DOPA as substrate by Lineweaver-Burk plot analysis. It is filed as protein assay. The note with it: dose 25-100 µM.
In data set [9] the test system is B16-F10. As to the kind of experiment: Antimelanogenic activity against IBMX/[…] stimulated mouse B16-F10 cells assessed as reduction in intracellular melanin production preincubated for 1 hr followed by IBMX/[…] addition and measured after 72 hrs by microplate reader assay. The class given is functional, cell-based. Particulars: dose 5-20 µM, time 73.0 hrs.

In data set [10] the target is T3, Tyrosinase (Mus musculus) (UniProt P11344).
T3 sequence (whole entry): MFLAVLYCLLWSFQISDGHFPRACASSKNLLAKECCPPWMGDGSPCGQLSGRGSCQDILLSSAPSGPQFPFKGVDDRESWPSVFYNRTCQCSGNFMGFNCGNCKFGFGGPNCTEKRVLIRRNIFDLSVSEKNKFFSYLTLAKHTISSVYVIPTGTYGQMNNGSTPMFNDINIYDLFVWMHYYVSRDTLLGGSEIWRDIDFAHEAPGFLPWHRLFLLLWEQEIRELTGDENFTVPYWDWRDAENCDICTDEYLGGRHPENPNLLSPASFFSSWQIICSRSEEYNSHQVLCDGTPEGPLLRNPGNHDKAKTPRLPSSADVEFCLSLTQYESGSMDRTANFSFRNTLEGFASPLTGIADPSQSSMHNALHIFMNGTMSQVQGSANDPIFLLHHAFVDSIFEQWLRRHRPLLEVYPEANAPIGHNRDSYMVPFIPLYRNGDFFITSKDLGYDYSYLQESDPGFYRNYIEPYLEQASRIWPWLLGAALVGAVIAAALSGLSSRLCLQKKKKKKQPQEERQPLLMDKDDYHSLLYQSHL
As to the kind of experiment: Inhibition of tyrosinase activity in IBMX/[…] stimulated mouse B16-F10 cells preincubated for 1 hr followed by IBMX/[…] addition and measured after 72 hrs by microplate reader assay. It is filed as cell-based. The note with it: dose 5-20 µM, time 73.0 hrs.

The target of data set [11] is T2, Mushroom tyrosinase (Agaricus bisporus). As to the kind of experiment: Potency index, ratio of kojic acid IC50 to test compound IC50 for inhibition of mushroom tyrosinase using L-Tyrosine as substrate. The class given is protein assay.
Data set [12] shares this target. As to the kind of experiment: Potency index, ratio of kojic acid IC50 to test compound IC50 for inhibition of mushroom tyrosinase using L-Dopa as substrate. It is filed as protein assay.
The target is the same in data set [13]. The data set can be described thus: Mixed type inhibition of mushroom tyrosinase at 3 to 12 uM using varying levels of L-DOPA as substrate by Lineweaver-Burk plot analysis. The note with it: dose 3-12 µM. The class given is protein assay.

With `Cc1c(C)c2c(c(C)c1O)CCC(C)(C(=O)O)O2` (stereo unspecified), the outcome in data set [1] was Active. Moreover, in data set [2], the Activity amounted to 99.9%.

Regarding `COc1ccc(CNC2=NC(=O)/C(=C/c3ccc(O)c(O)c3)S2)cc1`, the results for the IC50 in data set [3] and in [5] were 105.1 µM and more than 200 µM, respectively. The outcome in data set [1] was Active. Moreover, the Activity in [4] worked out at 100%; in data set [2], 75%.

Take `COc1ccc(CNC2=NC(=O)/C(=C/c3cc(OC)c(OC)c(OC)c3)S2)cc1`: the IC50 in data set [3] and in data set [5] was more than 200 µM in each case. In data set [1], the result was Active. Moreover, the result in data set [4] and in [2] was inactive.

For the molecule `COc1ccc(CNC2=NC(=O)/C(=C/c3ccc(OC)c(O)c3)S2)cc1`, the IC50 in data set [3] came out at 13 µM; in data set [5], 107.9 µM. Also, the Ki in data set [6] came to 65.83 µM. Besides, the Activity entry in data set [7] is “Non-Toxic”; in data set [2] it was 41%; in data set [9] it was “Dose-Dependent Effect”. In addition, the inhibition entry in [8] was “Active”. For the same molecule, the outcome in data set [1] was inactive. The inhibition result in data set [10] was “Dose-Dependent Effect”.

Consider `COc1ccc(CNC2=NC(=O)/C(=C/c3ccc(OC)c(OC)c3)S2)cc1`, for which the results for the half-maximal inhibitory concentration (IC50) in [3] and in data set [5] were 136 µM and more than 200 µM, respectively. Also, the result in data set [1] was Active. Further, the result in data set [4] and in data set [2] was inactive.

In the case of `COc1ccc(CNC2=NC(=O)/C(=C/c3ccc(O)c(OC)c3)S2)cc1`, the IC50 in data set [3] was determined as 78.1 µM; in [5] it was 29.4 µM. In addition, the outcome in [1] was inactive. Further, the Activity was found to be 93% in [4] and 41% in [2].

Turning to `O=C1O[C@H]([C@@H](O)CO)C(O)=C1O`, in data set [4], the Activity was 96%.

As to `COc1ccc(CNC2=NC(=O)/C(=C/c3ccc(OC)cc3OC)S2)cc1`, the results for the IC50 in data set [3] and in data set [5] were 146.4 µM and more than 200 µM, respectively. In addition, in data set [1], the outcome was Active. Also, the result in [4] and in [2] was inactive.

Take `CCOc1cc(/C=C2\SC(NCc3ccc(OC)cc3)=NC2=O)ccc1O`: the IC50 worked out at 98.5 µM in data set [3] and 174.2 µM in [5]. The result in data set [1] was inactive. Further, the Activity in data set [4] is more than 80%; in [2] it was 41%.

In the case of `COc1ccc(CNC2=NC(=O)/C(=C/c3cc(C(C)(C)C)c(O)c(C(C)(C)C)c3)S2)cc1`, the IC50 in [3] is 100.9 µM; in data set [5] it was more than 200 µM. Moreover, in data set [1], the result was inactive. For the same molecule, the Activity was more than 80% in data set [4] and 41% in data set [2].

As for `COc1ccc(CNC2=NC(=O)/C(=C/c3ccc(O)cc3)S2)cc1`, the IC50 is 29.2 µM in data set [3] and more than 200 µM in data set [5]. Further, in data set [4], the result was inactive.

Consider `COc1ccc(CNC2=NC(=O)/C(=C/c3ccc(O)cc3O)S2)cc1`, for which the IC50 was 0.4 µM in data set [3] and 2.1 µM in data set [5]. In data set [6], the Ki was determined as 1.1 µM. For the same molecule, the Activity result in data set [7] is “Non-Toxic”; in [4] it was more than 80%; in data set [2], 90%; in data set [9], “Dose-Dependent Effect”. Also, the result in [1] was inactive. The Ratio IC50 in data set [11] came out at 26; in [12] it was 19. In addition, the inhibition result in data set [13] was “Active”. For the same molecule, the inhibition result in data set [10] is “Dose-Dependent Effect”.

On to `COc1ccc(CNC2=NC(=O)/C(=C/c3ccc(F)cc3F)S2)cc1`, for which the IC50 in [3] was 179.2 µM; in data set [5], more than 200 µM. Also, the result in data set [1], in data set [4] and in [2] was inactive.

On to `COc1ccc(CNC2=NC(=O)/C(=C/c3cc(OC)c(O)c(OC)c3)S2)cc1`, for which the IC50 in [3] and in data set [5] was more than 200 µM in each case. The result in data set [1] was inactive. For the same molecule, the Activity in data set [2] was 41%.

As for `COc1ccc(/C=C2\SC(NCc3ccc(OC)cc3)=NC2=O)cc1`, the IC50 in [3] and in data set [5] was more than 200 µM each time. In data set [1], the result was Active. Further, the outcome in data set [4] and in [2] was inactive.

In the case of `COc1ccc(CNC2=NC(=O)/C(=C/c3ccc(F)c(F)c3)S2)cc1`, the IC50 in [3] was 79.5 µM; in data set [5], more than 200 µM. For the same molecule, the result in [1], in [4] and in data set [2] was inactive.
